Test results: patent publication US9586951B2 (FUJIFILM Corporation, priority 2013, dated 2017)

Molecular target: T1, ATM (Homo sapiens, UniProt Q13315)
T1 construct: detecting phosphorylation of Chk2 in a human non-small cell lung cancer cell line NCI-H460 (ATCC company); host or cells: NCI-H460 human non-small cell lung cancer cells
Experiment: ATM inhibition test (phosphorylation of Chk2 generated by ionizing radiation, AlphaScreen SureFire)
Type: cell-based
Conditions: phosphorylated Chk2 in NCI-H460 cells, ionizing radiation 8Gy, 1 hour after test compound treatment; read-out: ATM inhibitory activity
How it was run: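 Phosphorylated Chk2 read by AlphaScreen SureFire in human non-small cell lung cancer NCI-H460 cells, 1 hour after 8Gy ionizing radiation at 37° C. Compound added 1 hour before irradiation. Percent inhibition normalised between irradiated and non-irradiated drug-untreated signals.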

T1 sequence (Q13315 whole entry): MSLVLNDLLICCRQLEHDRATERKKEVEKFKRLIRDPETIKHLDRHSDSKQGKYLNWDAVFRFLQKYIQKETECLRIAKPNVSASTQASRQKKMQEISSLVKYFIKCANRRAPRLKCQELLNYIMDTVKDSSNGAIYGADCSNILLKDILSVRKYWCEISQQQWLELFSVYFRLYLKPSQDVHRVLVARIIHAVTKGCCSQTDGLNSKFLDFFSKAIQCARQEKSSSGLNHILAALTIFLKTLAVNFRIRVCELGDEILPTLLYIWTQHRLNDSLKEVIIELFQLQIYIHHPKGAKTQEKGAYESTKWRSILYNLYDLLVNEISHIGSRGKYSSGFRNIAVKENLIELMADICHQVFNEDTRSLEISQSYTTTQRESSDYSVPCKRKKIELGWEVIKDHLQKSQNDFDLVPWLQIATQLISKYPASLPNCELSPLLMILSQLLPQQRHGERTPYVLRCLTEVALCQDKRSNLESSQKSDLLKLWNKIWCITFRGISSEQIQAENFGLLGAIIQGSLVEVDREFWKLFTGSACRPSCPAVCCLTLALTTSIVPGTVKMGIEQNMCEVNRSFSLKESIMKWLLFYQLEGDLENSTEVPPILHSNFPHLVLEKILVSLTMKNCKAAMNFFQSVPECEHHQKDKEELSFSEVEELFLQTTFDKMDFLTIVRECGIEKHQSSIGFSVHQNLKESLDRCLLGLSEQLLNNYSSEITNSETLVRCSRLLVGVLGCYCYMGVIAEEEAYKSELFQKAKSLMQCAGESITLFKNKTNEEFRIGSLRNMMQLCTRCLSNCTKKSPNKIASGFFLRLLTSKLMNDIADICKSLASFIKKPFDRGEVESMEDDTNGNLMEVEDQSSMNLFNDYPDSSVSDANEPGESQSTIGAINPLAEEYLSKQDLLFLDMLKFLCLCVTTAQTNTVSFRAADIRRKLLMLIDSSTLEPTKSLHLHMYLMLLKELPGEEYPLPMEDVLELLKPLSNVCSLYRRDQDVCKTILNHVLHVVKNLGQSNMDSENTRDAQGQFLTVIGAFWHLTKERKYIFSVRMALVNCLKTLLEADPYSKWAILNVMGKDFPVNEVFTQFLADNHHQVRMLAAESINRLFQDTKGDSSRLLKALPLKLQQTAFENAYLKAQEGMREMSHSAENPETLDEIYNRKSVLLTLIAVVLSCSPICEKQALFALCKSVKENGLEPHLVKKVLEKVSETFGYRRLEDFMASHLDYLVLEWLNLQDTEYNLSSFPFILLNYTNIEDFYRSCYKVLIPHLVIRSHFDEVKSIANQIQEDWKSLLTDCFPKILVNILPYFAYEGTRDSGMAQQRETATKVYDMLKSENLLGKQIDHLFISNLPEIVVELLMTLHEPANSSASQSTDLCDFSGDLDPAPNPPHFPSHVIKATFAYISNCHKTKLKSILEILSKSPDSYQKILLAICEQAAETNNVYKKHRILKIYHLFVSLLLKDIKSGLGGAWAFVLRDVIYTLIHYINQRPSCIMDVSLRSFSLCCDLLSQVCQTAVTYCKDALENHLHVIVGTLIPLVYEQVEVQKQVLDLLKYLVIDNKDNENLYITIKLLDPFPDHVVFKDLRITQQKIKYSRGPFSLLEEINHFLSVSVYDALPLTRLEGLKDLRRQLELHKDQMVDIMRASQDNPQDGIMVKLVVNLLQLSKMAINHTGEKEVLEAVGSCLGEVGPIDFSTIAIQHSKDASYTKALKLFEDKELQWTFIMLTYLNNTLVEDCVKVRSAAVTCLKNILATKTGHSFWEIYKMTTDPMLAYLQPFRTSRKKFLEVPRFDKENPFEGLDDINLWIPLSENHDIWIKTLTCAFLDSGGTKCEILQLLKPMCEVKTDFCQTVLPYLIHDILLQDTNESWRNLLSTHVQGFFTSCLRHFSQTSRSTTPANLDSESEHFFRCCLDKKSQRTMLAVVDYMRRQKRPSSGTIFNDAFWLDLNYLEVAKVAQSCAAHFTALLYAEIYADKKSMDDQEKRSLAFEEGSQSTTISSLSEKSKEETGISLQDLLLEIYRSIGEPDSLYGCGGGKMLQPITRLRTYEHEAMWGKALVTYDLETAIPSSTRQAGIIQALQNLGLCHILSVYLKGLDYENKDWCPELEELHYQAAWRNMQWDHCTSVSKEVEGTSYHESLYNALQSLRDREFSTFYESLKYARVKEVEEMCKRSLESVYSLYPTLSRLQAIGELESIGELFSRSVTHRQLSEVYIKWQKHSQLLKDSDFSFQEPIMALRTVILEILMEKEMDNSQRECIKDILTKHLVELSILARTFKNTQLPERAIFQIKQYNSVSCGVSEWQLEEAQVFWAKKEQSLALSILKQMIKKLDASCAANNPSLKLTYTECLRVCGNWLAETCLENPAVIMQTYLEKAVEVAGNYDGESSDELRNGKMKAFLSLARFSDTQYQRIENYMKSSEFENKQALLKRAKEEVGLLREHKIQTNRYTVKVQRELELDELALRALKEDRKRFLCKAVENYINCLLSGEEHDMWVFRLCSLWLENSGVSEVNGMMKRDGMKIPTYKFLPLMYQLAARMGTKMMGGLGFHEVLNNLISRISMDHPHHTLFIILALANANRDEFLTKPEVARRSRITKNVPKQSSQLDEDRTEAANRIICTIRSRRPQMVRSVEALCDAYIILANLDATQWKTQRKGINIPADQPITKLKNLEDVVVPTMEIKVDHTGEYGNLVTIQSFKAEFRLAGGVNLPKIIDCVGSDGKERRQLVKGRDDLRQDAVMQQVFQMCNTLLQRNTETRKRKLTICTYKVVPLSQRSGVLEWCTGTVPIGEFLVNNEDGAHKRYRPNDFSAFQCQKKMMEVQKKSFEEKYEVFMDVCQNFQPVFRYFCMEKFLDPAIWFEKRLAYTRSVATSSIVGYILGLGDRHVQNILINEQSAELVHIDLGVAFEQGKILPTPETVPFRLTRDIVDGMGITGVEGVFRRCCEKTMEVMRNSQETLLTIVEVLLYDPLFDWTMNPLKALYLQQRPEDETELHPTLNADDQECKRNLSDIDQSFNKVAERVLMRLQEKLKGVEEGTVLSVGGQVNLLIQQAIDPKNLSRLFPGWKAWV

## O=c1cc(N2CCOCC2)cc(-c2cccc3c2Oc2ccc(NC4CCN(CC(F)(F)F)CC4)cc2C3)[nH]1 [Example 2-34, 4-Morpholino-6-(7-((1-(2,2,2-trifluoroethyl)piperidin-4-yl)amino)-9H-xanthen-4-yl)pyridin-2(1H)-one]
  IC50: 0.1 to 0.5 µM

## CNCC(Nc1ccc2c(c1)Sc1cccc(-c3cc(N4CCOCC4)cc(=O)[nH]3)c1S2)c1cccc(C)n1 (single isomer, unassigned) [Example 1-19-4-1, 6-(7-((2-(Methylamino)-1-(6-methylpyridin-2-yl)ethyl)amino)thianthren-1-yl)-4-morpholinopyridin-2(1H)-one]
  IC50: 0.1 to 0.5 µM

## CC(C)Oc1ccc(CCN2CCC(Nc3ccc4c(c3)Cc3cccc(-c5cc(N6CCOCC6)cc(=O)[nH]5)c3O4)CC2)cc1 [Example 2-30-18, 6-(7-((1-(4-Isopropoxyphenethyl)piperidin-4-yl)amino)-9H-xanthen-4-yl)-4-morpholino pyridin-2(1H)-one]
  IC50: 0.1 to 0.5 µM

## Cc1ccc(C(Nc2ccc3c(c2)Sc2cccc(-c4cc(N5CCOCC5)cc(=O)[nH]4)c2S3)C2CCN(CCF)CC2)nc1 (centres unmarked) [Example 1-56-6, 6-(7-(((1-(2-Fluoroethyl)piperidin-4-yl)(5-methylpyridin-2-yl)methyl)amino)thianthren-1-yl)-4-morpholino pyridin-2(1H)-one]
  IC50: < 0.1 µM

## COc1cncc(C(C)Nc2ccc3c(c2)Sc2cccc(-c4cc(N5CCOCC5)cc(=O)[nH]4)c2O3)c1 (centres unmarked) [Example 4-4-1, 6-(8-((1-(5-Methoxypyridin-3-yl)ethyl)amino)phenoxathiin-4-yl)-4-morpholinopyridin-2(1H)-one]
  IC50: 0.1 to 0.5 µM

## COCCN1CCOC(C(Nc2ccc3c(c2)Sc2cccc(-c4cc(N5CCOCC5)cc(=O)[nH]4)c2S3)c2ccc(C)cn2)C1 (single isomer, unassigned) [Example 1-56-8, 6-(7-(((4-(2-Methoxyethyl)morpholin-2-yl)(5-methylpyridin-2-yl)methyl)amino)thianthren-1-yl)-4-morpholino pyridin-2(1H)-one]
  IC50: < 0.1 µM

## CN1CCN(CCNc2ccc3c(c2)Cc2cccc(-c4cc(N5CCOCC5)cc(=O)[nH]4)c2S3)CC1 [Example 3-4-3, 6-(7-((2-(4-Methylpiperazin-1-yl)ethyl)amino)-9H-thioxanthen-4-yl)-4-morpholino pyridin-2 (1H)-one]
  IC50: 0.5 to 2 µM

## Cc1ccc(CNc2ccc3c(c2)Cc2cccc(-c4cc(N5CCOCC5)cc(=O)[nH]4)c2O3)cn1 [Example 2-2-2, 6-(7-(((6-Methylpyridin-3-yl)methyl)amino)-9H-xanthen-4-yl)-4-morpholino pyridin-2 (1H)-one]
  IC50: < 0.1 µM

## O=c1cc(N2CCOCC2)cc(-c2cccc3c2Sc2ccc(NC4CCN(Cc5cccnc5)C4)cc2S3)[nH]1 (centres unmarked) [Example 1-24-11, 4-Morpholino-6-(7-((1-(pyridin-3-ylmethyl)pyrrolidin-3-yl)amino)thianthren-1-yl)pyridin-2 (1H)-one]
  IC50: < 0.1 µM

## Cc1ccc(CN2CCC(Nc3ccc4c(c3)Cc3cccc(-c5cc(N6CCOCC6)cc(=O)[nH]5)c3O4)CC2)nc1 [Example 2-28-22, 6-(7-((1-((5-Methylpyridin-2-yl)methyl)piperidin-4-yl)amino)-9H-xanthen-4-yl)-4-morpholino pyridin-2(1H)-one]
  IC50: 0.1 to 0.5 µM

## COc1ccc(CNc2ccc3c(c2)Cc2cc(C)cc(-c4cc(N5CCOCC5)cc(=O)[nH]4)c2O3)cn1 [Example 2-49-1, 6-(7-(((6-Methoxypyridin-3-yl)methyl)amino)-2-methyl-9H-xanthen-4-yl)-4-morpholinopyridin-2(1H)-one]
  IC50: 0.5 to 2 µM

## Cc1cncc(C(C)Nc2ccc3c(c2)Cc2cccc(-c4cc(N5CCOCC5)cc(=O)[nH]4)c2O3)n1 (centres unmarked) [Example 2-14-49, 6-(7-((1-(6-Methylpyrazin-2-yl)ethyl)amino)-9H-xanthen-4-yl)-4-morpholino pyridin-2(1H)-one]
  IC50: 0.1 to 0.5 µM

## CNc1cncc(CNc2ccc3c(c2)Cc2cccc(-c4cc(N5CCOCC5)cc(=O)[nH]4)c2O3)c1 [Example 2-21-4, 6-(7-(((5-(Methylamino)pyridin-3-yl)methyl)amino)-9H-xanthen-4-yl)-4-morpholino pyridin-2(1H)-one]
  IC50: 0.1 to 0.5 µM

## CC(Nc1ccc2c(c1)Sc1cccc(-c3cc(N4CCOCC4)cc(=O)[nH]3)c1S2)c1nccs1 (centres unmarked) [Example 1-12-67, 4-Morpholino-6-(7-((1-(thiazol-2-yl)ethyl)amino)thianthren-1-yl)pyridin-2 (1H)-one]
  IC50: 0.1 to 0.5 µM

## O=c1cc(N2CCOCC2)cc(-c2cccc3c2Oc2ccc(NC4CCN(Cc5cncc(F)c5)CC4)cc2C3)[nH]1 [Example 2-28-18, 6-(7-((1-((5-Fluoropyridin-3-yl)methyl)piperidin-4-yl)amino)-9H-xanthen-4-yl)-4-morpholino pyridin-2(1H)-one]
  IC50: 0.1 to 0.5 µM

## Cc1cnc(C(CC(C)(C)O)Nc2ccc3c(c2)Sc2cccc(-c4cc(N5CCOCC5)cc(=O)[nH]4)c2S3)cn1 (centres unmarked) [Example 1-12-117, 6-(7-((3-Hydroxy-3-methyl-1-(5-methylpyrazin-2-yl)butyl)amino)thianthren-1-yl)-4-morpholino pyridin-2(1H)-one]
  IC50: 0.1 to 0.5 µM

## COc1cncc(C(C)Nc2ccc3c(c2)Sc2cccc(-c4cc(N5CCOCC5)cc(=O)[nH]4)c2S3)n1 (centres unmarked) [Example 1-12-78, 6-(7-((1-(6-Methoxypyrazin-2-yl)ethyl)amino)thianthren-1-yl)-4-morpholino pyridin-2 (1H)-one]
  IC50: 0.1 to 0.5 µM

## COc1ccc(CNc2ccc3c(c2)Sc2cccc(-c4cc(N5CCOCC5)cc(=O)[nH]4)c2S3)nc1 [Example 1-12-12, 6-(7-(((5-Methoxypyridin-2-yl)methyl)amino)thianthren-1-yl)-4-morpholino pyridin-2(1H)-one]
  IC50: 0.1 to 0.5 µM

## Cc1cnc(CNc2ccc3c(c2)Cc2cccc(-c4cc(N5CCOCC5)cc(=O)[nH]4)c2O3)cn1 [Example 2-14-76, 6-(7-(((5-Methylpyrazin-2-yl)methyl)amino)-9H-xanthen-4-yl)-4-morpholino pyridin-2(1H)-one]
  IC50: 0.1 to 0.5 µM

## CC1CCCCN1CC(CO)Nc1ccc2c(c1)Sc1cccc(-c3cc(N4CCOCC4)cc(=O)[nH]3)c1S2 (single isomer, unassigned) [Example 1-37-7, 6-(7-((1-Hydroxy-3-(2-methylpiperidin-1-yl)propan-2-yl)amino)thianthren-1-yl)-4-morpholino pyridin-2(1H)-one]
  IC50: 0.5 to 2 µM

## Cc1csc(CNc2ccc3c(c2)Cc2cccc(-c4cc(N5CCOCC5)cc(=O)[nH]4)c2O3)c1 [Example 2-14-41, 6-(7-(((4-Methylthiophen-2-yl)methyl)amino)-9H-xanthen-4-yl)-4-morpholino pyridin-2(1H)-one]
  IC50: 0.1 to 0.5 µM

## O=c1cc(N2CCOCC2)cc(-c2cccc3c2Sc2ccc(NCc4ccno4)cc2C3)[nH]1 [Example 3-6, 6-(7-((isoxazol-5-ylmethyl)amino)-9H-thioxanthen-4-yl)-4-morpholinopyridin-2(1H)-one]
  IC50: 0.5 to 2 µM

## CN(C)C1CCN(c2cccc(CNc3ccc4c(c3)Sc3cccc(-c5cc(N6CCOCC6)cc(=O)[nH]5)c3S4)n2)C1 (centres unmarked) [Example 1-12-35, 6-(7-(((6-(3-(Dimethylamino)pyrrolidin-1-yl)pyridin-2-yl)methyl)amino)thianthren-1-yl)-4-morpholino pyridin-2 (1H)-one]
  IC50: 0.1 to 0.5 µM

## CN1CCC(Nc2ccc3c(c2)Sc2cccc(-c4cc(N5CCOCC5)cc(=O)[nH]4)c2S3)C1 (centres unmarked) [Example 1-31-1, 6-(7-((1-Methylpyrrolidin-3-yl)amino)thianthren-1-yl)-4-morpholinopyridin-2(1H)-one]
  IC50: 0.1 to 0.5 µM

## O=c1cc(N2CCOCC2)cc(-c2cccc3c2Sc2ccc(NC4CCCN(Cc5ccccn5)C4)cc2S3)[nH]1 (centres unmarked) [Example 1-24-3, 4-Morpholino-6-(7-((1-(pyridin-2-ylmethyl)piperidin-3-yl)amino)thianthren-1-yl)pyridin-2 (1H)-one]
  IC50: 0.1 to 0.5 µM

## Cc1cc(CNc2ccc3c(c2)Sc2cccc(-c4cc(N5CCOCC5)cc(=O)[nH]4)c2O3)ccn1 [Example 4-4-3, 6-(8-(((2-Methylpyridin-4-yl)methyl)amino)phenoxathiin-4-yl)-4-morpholino pyridin-2 (1H)-one]
  IC50: 0.1 to 0.5 µM

## Cc1cnc(C(CF)Nc2ccc3c(c2)Cc2cccc(-c4cc(N5CCOCC5)cc(=O)[nH]4)c2O3)nc1 (centres unmarked) [Example 2-14-83, 6-(7-((2-Fluoro-1-(5-methylpyrimidin-2-yl)ethyl)amino)-9H-xanthen-4-yl)-4-morpholino pyridin-2(1H)-one]
  IC50: 0.1 to 0.5 µM

## Cn1c(CNc2ccc3c(c2)Cc2cccc(-c4cc(N5CCOCC5)cc(=O)[nH]4)c2O3)cccc1=O [Example 2-2-47, 1-Methyl-6-(((5-(4-morpholino-6-oxo-1,6-dihydropyridin-2-yl)-9H-xanthen-2-yl)amino)methyl) pyridin-2(1H)-one]
  IC50: 0.5 to 2 µM

## O=c1cc(N2CCOCC2)cc(-c2cccc3c2Oc2ccc(NCc4ccncc4)cc2CC3)[nH]1 [Example 2-51-3, 4-Morpholino-6-(8-((pyridin-4-ylmethyl)amino)-10,11-dihydrodibenz[b,f]oxepin-4-yl)pyridin-2(1H)-one]
  IC50: 0.5 to 2 µM

## O=c1cc(N2CCOCC2)cc(-c2cccc3c2Oc2ccc(NC4CCN(CC5CCCCC5)CC4)cc2C3)[nH]1 [Example 2-28-35, 6-(7-((1-(Cyclohexylmethyl)piperidin-4-yl)amino)-9H-xanthen-4-yl)-4-morpholino pyridin-2(1H)-one]
  IC50: 0.1 to 0.5 µM

## CC(C)Oc1cncc(CNc2ccc3c(c2)Cc2cccc(-c4cc(N5CCOCC5)cc(=O)[nH]4)c2O3)c1 [Example 2-2-65, 6-(7-(((5-Isopropoxypyridin-3-yl)methyl)amino)-9H-xanthen-4-yl)-4-morpholino pyridin-2(1H)-one]
  IC50: 0.1 to 0.5 µM

## COc1ccncc1CN1CCC(Nc2ccc3c(c2)Cc2cccc(-c4cc(N5CCOCC5)cc(=O)[nH]4)c2O3)CC1 [Example 2-28-11, 6-(7-((1-((4-Methoxypyridin-3-yl)methyl)piperidin-4-yl)amino)-9H-xanthen-4-yl)-4-morpholino pyridin-2(1H)-one]
  IC50: 0.1 to 0.5 µM
